Literature values, collected in patent US11957727B2, “Prevention of neuroinflammation associated memory loss using nutraceutical compositions” (priority 2020, dated 2024).
Like-named read-outs stand apart in the source and are kept apart here.

What was measured:
[1] = system: LPS-induced ARDS
[2] = system: Nrf2 (+/+) primary peritoneal macrophages
[3] = system: nitric oxide; conditions: lipopolysaccharide-induced
[4] = system: sepsis induction with live Escherichia coli / endotoxin (LPS 0111:B4); conditions: for concentration of IL-la: controls 1187.0±278.64 pg/ml
[5] = system: endothelium of atherosclerotic plaque; conditions: PT injection, apoE(−/−) mice
[6] = animal studies
[7] = system: human umbilical vein VECs (HUVECs)
[8] = system: ulcerative colitis (UC); conditions: 50 and 100 mg/kg/day
[9] = system: myocardial ischemia and reperfusion; conditions: 10 mg/kg intravenously then 10 mg/kg/h infusion, rats
[10] = 50 mg/kg, LPS 5 mg/kg 3 days later

In the case of C[S+]([O-])CCCCN=C=S (stereo not shown) [sulforaphane, 1-isothiocyanato-4-(methylsulfinyl)-butane], the “lactate dehydrogenase (LDH) activity” value [1, 10] is given as “significantly decreased”, the “wet-to-dry ratio of the lungs” value [1, 10] is given as “significantly decreased” and the “serum levels of interleukin-6 (IL-6) and tumor necrosis factor-α (TNF-α)” value ([1]; 50 mg/kg, LPS 5 mg/kg 3 days later, ELISA) is given as “significantly decreased”. The “prostaglandin E2 (PGE2) production” value ([1]; mice with LPS-induced ALI) was “significantly inhibited”, the HO-1 expression ([2]; LPS-stimulated Nrf2 (+/+) macrophages) was “significantly augmented” and the “LPS-stimulated mRNA expression, protein expression and production of TNF-alpha, IL-1beta, COX-2 and iNOS” value ([2]; pretreatment, Nrf2 (+/+) macrophages) was “potently inhibited”.
In the case of CC1=CC(=O)C(C(C)C)=CC1=O [thymoquinone], the “concentration of nitric oxide” value [3] is listed as “reduced significantly”, the “concentration of IL-la” value ([4]; 0.75 mg/kg thymoquinone dose) is listed as 310.8 ± 70.93 pg/mL and the IL-10 levels ([4]; 0.75 mg/kg thymoquinone, controls 5505.2±333.96 pg/ml) is listed as 2885.0 ± 553.98 pg/mL. The “concentration of IL-la” value ([4]; 1 mg/kg group) was 428.3 ± 71.32 pg/mL, the “levels of TNF-α and IL-2” value ([4]; P values=0.1817 and 0.0851) was “relatively lower levels” and the reduction of mortality ([4]; mice, thymoquinone before LPS or live E. coli challenge) was 80-90%.
In the case of “trans-3,5-dimethoxy-4-hydroxystilbene [pterostilbene]”, the “number of TUNEL-positive cells” value [5] is given as “strongly decreased”, the bioavailability [6] is given as 80% and the “protection against oxLDL-induced cell shrinkage, chromatin condensation, nuclear fragmentation and apoptosis” value ([7]; HUVECs, oxLDL 200 μg/ml) is given as “protected against such injuries”. For the same molecule, the “expression of lectin-like oxLDL receptor-1 (LOX-1)” value ([7]; in vitro and in vivo) was “inhibited”.
In the case of Epigallocatechin-3-gallate [EGCG], the “release of IL-6 and IL-17” value [8] is listed as “reduce”, the “myocardial damage and myeloperoxidase activity” value [9] is listed as “reduced” and the “plasma IL-6 and creatine phosphokinase levels” value [9] is listed as “decreased”.
